Measurements published in patent publication US10806744B2, “Edible composition” (Conopco, Inc., priority 2015, dated 2020).
Where “and” joins values, the source holds several entries; their conditions need not be identical. Equal entries are not always repeated.

Legend:
SGLT1 = biological target: T1, SGLT1 (Homo sapiens, UniProt P13866); assay: Glucose transport inhibitor cell screening assay, 5 mM D-glucose for 15 minutes; settings: for inhibition at 300 µM: Caco-2, read-out: % Glucose transport inhibiton 5 mM
T1 sequence (P13866 1-664): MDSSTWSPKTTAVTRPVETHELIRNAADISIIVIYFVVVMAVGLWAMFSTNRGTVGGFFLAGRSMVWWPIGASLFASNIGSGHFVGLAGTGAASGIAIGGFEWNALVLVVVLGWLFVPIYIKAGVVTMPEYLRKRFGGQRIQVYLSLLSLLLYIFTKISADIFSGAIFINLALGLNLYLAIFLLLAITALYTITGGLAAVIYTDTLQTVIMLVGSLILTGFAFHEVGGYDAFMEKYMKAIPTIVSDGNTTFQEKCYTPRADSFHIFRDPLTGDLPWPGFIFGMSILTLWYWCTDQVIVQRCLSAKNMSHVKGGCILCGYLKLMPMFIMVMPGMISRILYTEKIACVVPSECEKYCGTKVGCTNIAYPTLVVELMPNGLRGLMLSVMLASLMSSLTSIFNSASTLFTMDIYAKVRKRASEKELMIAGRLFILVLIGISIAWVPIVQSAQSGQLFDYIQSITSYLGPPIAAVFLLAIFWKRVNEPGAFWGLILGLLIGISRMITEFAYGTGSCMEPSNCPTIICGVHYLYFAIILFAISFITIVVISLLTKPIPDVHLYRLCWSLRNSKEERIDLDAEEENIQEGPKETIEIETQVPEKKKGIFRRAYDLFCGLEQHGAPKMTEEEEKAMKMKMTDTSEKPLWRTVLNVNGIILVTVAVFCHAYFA
Procedure: (§1) Human epithelial colorectal adenocarcinoma (Caco-2) cells were obtained from the American Type Culture Collection (ATCC) and cultured in Growth Medium consisting of Dulbecco's modified Eagle's medium (containing Glutamax-1, 4.5 g/L D-glucose and 25 mM 4-(2-hydroxyethyl)-1-piperazine ethanesulphonic acid (Hepes) (Invitrogen)), 10% foetal bovine serum (Sigma), 1% non-essential amino acids (Invitrogen) and 1 mM sodium pyruvate (Sigma)). The cells were routinely passaged at approximately 80% confluence using TrypLE™ Express Stable Trypsin-Like Enzyme (Invitrogen) to detach the cells, and seeded at approximately 114 cells per mm^2 in fresh tissue culture flasks. Only cells between the passage numbers 45 and 49 were used for experiments.
(§2) Corning® HTS Transwell® 96 well permeable insert supports (Sigma) were collagen coated with 40 μl of 50 μg/ml rat tail collagen type I (BD Biosciences) in 0.02 M acetic acid for one hour at room temperature under sterile conditions. The inserts were washed twice in phosphate buffered saline (PBS (Invitrogen)) and the Caco-2 cells seeded into the inserts at 1.0×10^6 cell/ml (75 μl per insert) in Growth Medium and 30 ml of Growth Medium added to the feeder plate below. The cells were left to attach to the collagen matrix and form monolayers over 48 hours at 37° C., 5% CO2. Both inserts and feeder plate were washed in PBS and the cells incubated with BD Entero-STIM™ Enterocyte Differentiation Medium containing MITO+™ Serum Extender solution (both BD Biosciences), 75 μl per insert and 30 ml in the feeder plate, for a further 48 hours at 37° C., 5% CO2.
(§3) Differentiated cell monolayers were washed gently in Dulbecco's Phosphate Buffered Saline containing CaCl2 and MgCl2 (PBS(+) (Invitrogen)) and the inserts transferred to a new Corning® HTS Transwell®-96 well receiver plate (Sigma). The cells were incubated with fresh PBS(+) (75 μl per insert and 225 μl per well) for 60 minutes at 37° C., 5% CO2. The PBS(+) was gently aspirated and replaced with 75 μl per insert of either 5 mM D-glucose (Sigma)±test compound or 25 mM D-glucose±test compound in triplicate and 225 μl per well of PBS(+) quickly added to each well. The 5 mM glucose wells and the 25 mM glucose wells were incubated at 37° C., 5% CO2 for 15 minutes and 30 minutes, respectively. […] The cell inserts were transferred to a new receiver plate, the supernatant gently aspirated from the cells and replaced with 100 μl of 100 μM of Lucifer Yellow (Sigma) solution to confirm the integrity of the monolayers. 225 μl of PBS(+) was added to each well and incubated at 37° C., 5% CO2 for 1 hour. The cell inserts were then discarded and the permeability of the membranes to Lucifer Yellow checked by measuring the fluorescence of the samples at 485 nm (excitation) and 530 nm (emission) on a Spectramax Gemini EM fluorescence microplate reader.
(§4) The amount of glucose transported across the cell monolayers was measured using a glucose assay based on Invitrogen's Amplex Red Glucose/Glucose oxidase Assay Kit. Briefly, 50 μl of each test sample was transferred to a black sided/clear bottom 96-well plate (Greiner Bio-One) to which 100 μl of reaction buffer (0.5 μl 10 mM Ampliflu Red, 1 μl 10 U/ml Horse Radish peroxidase, 1 μl 100 U/ml glucose oxidase and 97.5 μl PBS (all Sigma)) was added. After 10 minutes incubation at room temperature, the fluorescence of the samples was measured at 530 nm (excitation) and 590 nm (emission) on a Spectramax Gemini EM fluorescence microplate reader and the glucose concentration extrapolated from a standard curve.
(§5) At higher D-glucose concentrations, the SGLT1 transporter becomes saturated and consequently the majority of glucose transport across the monolayer is driven by the low affinity, high capacity GLUT2 transporter that is targeted to the apical membrane only following an initial SGLT1-dependent transport of glucose.

[1] = test system: glucose transport across differentiated Caco-2 cell monolayers; assay: Glucose transport cell model: 5 mM D-glucose 15 minutes, then 25 mM for 45 minutes, cumulative glucose transport; type: cell-based, human; parameters: unit not given here; settings: duplicate
Procedure: Caco-2 cells were cultured and routinely passaged as described in Example 1.
After the last incubation, all of the retained PBS(+) from each step (i.e. at 15, 30, 45 and 60 minutes) was assayed for glucose levels as described in Example 1, and the total cumulative glucose transport calculated. The localised changes in luminal glucose concentrations described and illustrated in example 1 are mimicked in-vitro through an initial short incubation of differentiated Caco-2 cells with a low level of D-glucose (5 mM for 15 minutes) immediately followed by a sustained incubation with a high level of D-glucose (final concentration of 25 mM for 45 minutes).
In the above table, every test pairing of a homisoflavonoid (HIF) and a flavonoid monoglucoside (FM) has 5 values reported: • 1. No Compound (NC)+NC • 2.
Synergy is achieved when the inhibition caused by the combination of HIF and FM is greater than the sum of the inhibition due to HIF alone added to the inhibition due to FM alone.

GLUT2 = biological target: T2, GLUT2 (Homo sapiens, UniProt P11168); assay: Glucose transport inhibitor cell screening assay, 25 mM D-glucose for 30 minutes; settings: for inhibition at 300 µM: Caco-2, read-out: % Glucose transport inhibiton 25 mM; for identified as inhibitors of GLUT2: Caco-2 cell assay
T2 sequence (P11168 1-524): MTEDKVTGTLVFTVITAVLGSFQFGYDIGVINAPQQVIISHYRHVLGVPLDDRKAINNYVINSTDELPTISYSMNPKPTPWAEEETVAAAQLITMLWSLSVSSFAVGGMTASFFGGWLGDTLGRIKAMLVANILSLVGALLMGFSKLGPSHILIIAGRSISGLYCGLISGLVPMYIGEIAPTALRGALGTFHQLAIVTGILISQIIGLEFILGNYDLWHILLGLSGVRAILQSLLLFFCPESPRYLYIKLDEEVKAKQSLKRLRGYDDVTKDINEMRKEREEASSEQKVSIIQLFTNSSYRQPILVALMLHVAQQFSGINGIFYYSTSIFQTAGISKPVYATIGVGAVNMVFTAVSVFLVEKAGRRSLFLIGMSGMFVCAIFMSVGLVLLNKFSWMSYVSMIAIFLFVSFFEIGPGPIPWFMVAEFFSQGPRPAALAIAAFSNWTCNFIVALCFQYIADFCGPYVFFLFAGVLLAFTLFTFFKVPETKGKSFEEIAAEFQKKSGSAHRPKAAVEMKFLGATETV
Procedure: as §1, §2, §3, §4, §5

SGLT1 and GLUT2 = assay: Assigned class of transporter inhibited, from Caco-2 screening at 5 mM and 25 mM D-glucose; type: cell-based, human; settings: from % inhibition at 5 mM and 25 mM D-glucose; compound 300 μM
[2] = homoisoflavonoid 5 uM alone, added at 25 mM glucose step (NC at 5 mM)

Cc1c(O)c(C)c2c(c1O)C(=O)[C@H](Cc1ccc3c(c1)OCO3)CO2 [MOA, methylophiopogonanone A]
inhibition at 300 µM (SGLT1): 39.3 ± 2.17% | Cumulative (AVE) glucose transport [1, 2]: 231.69 | inhibition at 300 µM (GLUT2): 27.7 ± 3.7% | identified as inhibitors of GLUT2 (GLUT2): inhibitors of GLUT2 | Class (assigned class of transporter inhibited) (SGLT1 and GLUT2): GLUT2 (GLUT2 inhibitors having ≥20% inhibition at both 5 mM and 25 mM D-glucose levels)

COc1ccc(C[C@@H]2COc3c(C)c(O)c(C)c(O)c3C2=O)cc1 [MOB, methylophiopogonanone B]
inhibition at 300 µM (SGLT1): 46.2 ± 2.04% | Cumulative (AVE) glucose transport [1, 2]: 200.59 | inhibition at 300 µM (GLUT2): 30.6 ± 3.2% | identified as inhibitors of GLUT2 (GLUT2): inhibitors of GLUT2 | Class (assigned class of transporter inhibited) (SGLT1 and GLUT2): GLUT2 (GLUT2 inhibitors having ≥20% inhibition at both 5 mM and 25 mM D-glucose levels)

COc1c(O[C@@H]2O[C@H](CO)[C@@H](O)[C@H](O)[C@H]2O)cc2occ(-c3ccc(O)cc3)c(=O)c2c1O [Tectoridin]
inhibition at 300 µM (SGLT1): 29.4 ± 0.62% | identified as inhibitors of SGLT1 (SGLT1; Caco-2 cell assay): inhibitors of SGLT1 | Cumulative (AVE) glucose transport ([1]; flavonoid monoglucoside 300 uM alone, added at 5 mM glucose step only (NC at 25 mM), listed as T): 346.92 and 321.4 and 298.40 | Cumulative (AVE) glucose transport ([1]; flavonoid monoglucoside 300 uM alone, added at 25 mM glucose step only (NC at 5 mM), listed as T): 395.85 and 304.5 and 298.98 | inhibition at 300 µM (GLUT2): 4.92 ± 2.08% | Class (assigned class of transporter inhibited) (SGLT1 and GLUT2): SGLT1
